Results on one compound are retold here after patent publication US20170246144A1, “METHOD OF PREVENTING OR TREATING SPINOCEREBELLAR ATAXIA BY ADMINISTRATING SILIBININ” (National Taiwan Normal University, priority 2016, published 2017).

The test system of data set [1] is SH-SY5Y cells. The data set can be described thus: Western blotting of Bax and Bcl-2 after MSG. Format: cell-based, Human. To be noted: 15 μM, 100 mM MSG, 6 hours. As to the method: The levels of Bax and Bcl-2 in 1×10^6 SH-SY5Y cells were measured by western blotting, wherein the control group (Ctrl) was untreated SH-SY5Y cells or the cells were treated with 100 mM MSG, 100 mM MSG+15 μM SB or 100 mM MSG+10 μM MK801 (MK) for 6 hours. Actin was used as a loading control.
In present embodiment, western blotting was performed to study whether silibinin protects SH-SY5Y cell from apoptosis due to glutamatergic excitotoxicity via mitochondria-dependent apoptosis pathway.
It is known that the reduction of Bcl-2 level and the increases of Bax level are related to the increases of free calcium ion in cytosol. Bcl-2 is a cell-survival protein and Bax is a pro-apoptotic protein and they both mediate the releases of cytochrome C from mitochondria. Therefore, Bcl-2 and Bax are used as indicators in the present embodiment.
On the technique in general: In western blotting, separated proteins are transferred to a membrane and probed.

Data set [2] relates to SH-SY5Y cells. Description: JC-1 flow cytometry of mitochondria membrane potential (MMP). Format: cell-based, Human. To be noted: 15 μM + 100 mM MSG. On the procedure:
FIGS. 7A and 7B show the effects of SB on mitochondria membrane potential (MMP) in SH-SY5Y cells treated with MSG measured by JC-1 staining with a flow cytometry, wherein the control group (Ctrl) was untreated SH-SY5Y cells or the cells were treated with 100 mM MSG, 100 mM MSG+15 μM SB, 100 mM MSG+10 μM MK801 (MK) or 5 μM CCCP (disruptor of electron transport chain) for 12 hours. […] The results were shown as mean±SEM, n=3, *p<0.05, comparing to the MSG treatment group.
In the present embodiment, flow cytometry analysis was used to investigate whether silibinin can prevent the reduction of mitochondria membrane potential induced by glutamate in SH-SY5Y cells.
SH-SY5Y cells were seeded in 6 centimeter dish (1×10^6 cells/plate) for 24 hours, and then were pre-treated with 15 μM silibinin or 10 μM MK-801 for 1 hour followed by the treatment of 100 mM MSG for 12 hours. 5 μM carbonyl cyanide m-chlorophenylhydrazone (CCCP) was added to the positive control group to induce the depolarization of mitochondria membrane potential.
The treated cells were washed, centrifuged and collected, followed by PBS wash and JC-1 dye staining for 30 minutes. The stained cells were re-suspended using phosphate buffer solution and analyzed by a flow cytometry to obtain a 2-dimensional scatter plot. 10,000 cells were recorded for each experiment.

The test system of data set [3] is nTBP/Q79-EGFP cells. The data set can be described thus: Dot blot and western blotting of protein aggregation, anti-TBP (N12). Format: cell-based, Human. To be noted: 15 μM, Dox 5 days. As to the method: FIGS. 9A-9C show the effects of SB on protein aggregation in nTBP/Q79-EGFP cells after the induction of Dox, which were analyzed by western blotting and dot blot assays. 1.0×10^6 nTBP/Q36-EGFP cells or nTBP/Q79-EGFP cells were pretreated with 15 μM SB for 1 hour followed by the treatment of 10 μg/mL Dox. Cell lysates were analyzed using western blotting and dot blot assays with anti-TBP (N12) antibody. […] The values represent means±SD. Data were the mean values of three independent experiments.
In the present example, dot blot and western blotting methods were used to analyze whether silibinin can reduce the protein aggregation in nTBP/Q79-EGFP cells induced by Dox.
nTBP/Q36-EGFP cells and nTBP/Q79-EGFP cells were cultured in 6 cm petri-dish for 24 hours followed by the treatment of 15 μM silibinin for 1 hour and the treatment of […] and 10 μM RA for 5 days. The proteins were extracted from the treated cells and analyzed by dot blot and western blotting, wherein the primary antibody is TBP(N-12) antibody and the secondary antibody is HRP conjugated anti-rabbit antibody.

Data set [4] can be described thus: Body weight of SCA17 transgenic mice. Format: in vivo. The following applies: 4.5 mg/kg i.p. once every 2 days, 10 to 20 weeks old. As to the method: FIGS. 10A-10F show the effects of SB on the body weight and motor performance in SCA17 transgenic mice. Mice were grouped into wild type-saline (WT-saline), transgenic-saline (TG-saline), and transgenic-SB treatment (TG-SB) groups. Mice were injected intraperitoneally with saline or SB (4.5 mg/kg) at 8-week old once every 2 days. […] FIG. 10E and FIG. 10F show respectively the stride length of front-limb/hind-limb at the right-side and the left-side. The values represent means±SD, n=6. *p<0.05, comparing to the TG-saline group.
In order to understand the efficacy of silibinin in treating SCA17 in vivo, SCA17 transgenic mice (referring as SCA17 mice hereinafter) were used, which were kindly provided by Dr. Hsiu-Mei Hsieh in NTNU.
The mice were housed individually in ventilated cages with a 12-hour light/dark cycle. All mice were maintained in the animal facility in NTNU under specific pathogen-free conditions in accordance with institutional guidelines of the Animal Care and Use Committee at NTNU. The experimental animals were used for motor behavioral assessments, footprint test and the protein aggregation analysis in cerebellum.
Since the SCA17 mice were 8 weeks old, the mice were injected intraperitoneally with silibinin in saline at 4.5 mg/kg once every 2 days, designated as TG_SB group. The mice in TG_saline group were injected with same amount of saline.

The test system of data set [5] is SH-SY5Y cells. The data set can be described thus: Western blotting of calpain-2 and SBDP after MSG. Format: cell-based, Human. To be noted: 15 μM, 100 mM MSG, 6 hours. As to the method:
The levels of calpain-2 and SBDPs were measured by western blotting in 1×10^6 SH-SY5Y cells, wherein the control group (Ctrl) was untreated SH-SY5Y cells or the cells were treated with 100 mM MSG, 100 mM MSG+15 μM SB or 100 mM MSG+10 μM MK801 (MK) for 6 hours. Actin was used as a loading control.
In present embodiment, western blotting was performed to study whether silibinin protects SH-SY5Y cell from apoptosis due to glutamatergic excitotoxicity via calcium-dependent apoptosis pathway.
Calpain-2, a thiol proteinase, is activated by the increases of intracellular free calcium ions and the reduction of Bcl-2 level. The level of SBDPs was elevated by calcium-induced calpain-2 in glutamate-induced cell death. Therefore, calpain-2 and SBDPs were used as indicators in the present embodiment.
SH-SY5Y cells were treated with silibinin at pre-determined concentrations or 10 μM MK801 for 1 hour followed by the treatment of 100 mM MSG. Western blotting was performed to analyze the levels of calpain-2 and SBDP.

On to `COc1cc(C2Oc3cc([C@H]4Oc5cc(O)cc(O)c5C(=O)[C@@H]4O)ccc3OC2CO)ccc1O` (some centres unmarked) [silibinin], for which, in data set [1], the “increase of Bcl-2 level, compared to MSG only” value is given as “approximately 167%” and the “reduction of Bax level, compared to MSG only” value is 80%. In addition, in data set [2], the “MMP compared to Ctrl” value was 85+13%. In data set [3], the “reduction of protein aggregation, dot blot” value is 67% and the “reduction of protein aggregation, western blotting” value was 90%. The “body weight compared to WT_saline group” value in data set [4] is reported as “no significant differences”. In addition, in data set [5], the “reduction of SBDP level, compared to the increased level with MSG only” value was 250% and the “reduction of calpain-2 level, compared to the increased level with MSG only” value came out at 200%.
